Patent US20260317356A1, “SMALL MOLECULE MODULATORS OF OGG1” (AZKARRA THERAPEUTICS, INC., priority 2023, published 2026)

What was measured:
[1] = molecular target: T1, hOGG1 (Homo sapiens, UniProt O15527); assay: Surface Plasma Resonance with hOGG1 to measure compound affinity (OGG1 SPR Kd); type: binding; set-up: Protein His-hOGG1 (12-323) was prepared; conditions: Biacore T-200, immobilized his-tagged OGG1; pH 7.4; 2% DMSO; single-cycle kinetics
Method: Surface Plasma Resonance with hOGG1 to Measure Compound Affinity (OGG1 SPR Kd); All the SPR studies were performed on a Biacore T-200 instrument (Cytiva life sciences) using series S NTA sensor chip (cat #BR-1005-32, Cytiva life sciences). Recombinant his-tagged OGG1 (mol. wt. 36003; ChemPartner, Shanghai, China) was immobilized on NTA sensor chip via Ni^2+/NTA chelation using NTA reagent kit (Cytiva life sciences; cat #289950) as per manufacturer's recommended protocol. The running buffer during immobilization contained HEPES (20 mM, pH 7.4), 150 mM NaCl, 0.5 mM TCEP (tris(2-carboxyethyl)phosphine), and 0.005% Tween-20. NTA sensor chip (experimental cell) was first conditioned by injecting regeneration solution (350 mM EDTA, flow rate 30 μL/min, 2 injections 60 each). Additional wash with 50 mM NaOH was used whenever the chip was regenerated (flow rate 30 μL/min, 1 injection of 60 s). The sensor chip was then activated with 0.5 mM NiCl2 (flow rate 10 μL/min, 2 injection of 60 s, leading to a baseline increase of ~40 RU), and the excess Ni^2+ was removed using immobilization buffer containing 3 mM EDTA (flow rate 10 μL/min, 1 injection of 60 s). Finally, OGG1 (diluted to 6.2 μg/mL in running buffer) was injected on the activated sensor chip at a flow rate of 10 μL/min until immobilization level reached ~6000 RU. Any loosely bound protein was removed by passing the immobilization buffer overnight at 20 μL/min. At this point, the drift in baseline was ~0.01 RU/s and the final immobilization level was ~2500 RU. Reference cell was left untreated. SPR binding experiments were performed using binding buffer (20 mM HEPES (pH 7.4), 150 mM NaCl, 0.5 mM TCEP, 0.005% Tween-20, and 2% DMSO) at a flow rate of 30 μL/min. Single-cycle kinetics approach was used for binding analysis which consisted of sequential injections of increasing concentrations of test compound (a 3-fold serial dilution with 5 concentrations; highest 750 or 1500 nM; with final DMSO concentration at 2%) over the immobilized protein without regeneration step between each sample injection. Each injection was 45 seconds long (contact time), followed by a final dissociation of 600 sec. The Biacore T-200 Evaluation software 3.1 (GE Healthcare) was used to determine kinetic parameters from SPR data. All the reported sensograms were reference subtracted and corrected for refractive index contributions from solvent using 8-point solvent correction (1.4 to 2.8% DMSO in binding buffer). Data were fit to both steady state and 1:1 kinetic model to obtain Kon, Koff and binding affinity (Kd).

[2] = molecular target: T2, nLucOGG1 in HeLa cells (Homo sapiens, UniProt O15527); assay: Cellular Thermal Shift Assay to measure compound affinity for nLucOGG1 in HeLa cells (CETSA DTm); type: cell-based; conditions: 10 μM compound, 37° C. 60 min, Tm vs DMSO control
T2 construct: thermal shift read by NanoGlo luminescence
T2 sequence (O15527 whole entry): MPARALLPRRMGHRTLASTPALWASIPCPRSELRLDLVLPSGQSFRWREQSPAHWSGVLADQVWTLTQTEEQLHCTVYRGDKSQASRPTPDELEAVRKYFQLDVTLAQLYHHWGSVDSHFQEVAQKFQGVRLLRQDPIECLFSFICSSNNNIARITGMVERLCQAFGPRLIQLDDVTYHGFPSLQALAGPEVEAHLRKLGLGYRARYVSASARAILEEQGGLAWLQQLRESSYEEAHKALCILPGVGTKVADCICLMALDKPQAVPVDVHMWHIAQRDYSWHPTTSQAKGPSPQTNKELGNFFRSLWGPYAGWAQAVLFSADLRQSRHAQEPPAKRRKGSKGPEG
Method: Biological Example 2: Cellular Thermal Shift Assay to Measure Compound Affinity for ^nLucOGG1 in HeLa Cells (CETSA DTm)
Cell Culture and Transfection of Hela Cells with ^nLucOGG1: For all tests, Hela cells were maintained in growth medium, Dulbecco's Minimum Eagle Medium (Multicell: Cat #319-005-CL) supplemented with 10% heat-inactivated fetal bovine serum (Gibco: Cat #12484-028) at 37° C. and 5% CO2 in a humidified tissue culture incubator. Transient transfections were performed using the Lonza 4-D Nucleofector X unit according to the manufacturer's protocol (Lonza Cat #V4XC-1024). Briefly, for each transfection, 1.2×10^6 cells were centrifuged at 1000 RPM for 5 minutes at room temperature before being diluted in 100 μL SE solution containing 18% v/v supplement and 1.5 μg pNF1-N-empty or pNF1-N-OGG1a vector. The total volume was transferred to a 100 μL nucleofection cuvette prior to transfer to the apparatus where HeLa cell nucleofection protocol CN-114 was executed. Following nucleofection, 500 μL complete media was added to the cells in the cuvette before transferring to a 6-well dish containing 1.5 mL of complete media. Cells were left to incubate for 48 hours before performing all cellular thermal shift experiments.
Cellular Thermal Shift Assays for Target Engagement (CETSA): Forty-eight hours following nucleofection, cells were washed once with DPBS−/−(Multicell: Cat #311-425-CL) and lifted with 0.25% Trypsin-EDTA (Multicell: Cat #325-043-CL) prior to dilution in growth medium and centrifugation at 1000 RPM for 5 minutes at room temperature. The resulting cell pellet was then resuspended in growth medium, cells were counted and the volume adjusted to 500 k cells/mL (2×).
For delta Tm determination, OGG1 inhibitor compounds were dissolved in DMSO to a final working concentration of 20 mM. Working solutions were then diluted in complete media to 20 μM or 0.1% DMSO for the vehicle control (2×). 2×OGG1 inhibitor compound solutions or 0.1% DMSO control were then pre-dispensed into MicroAmp Optical 96-well PCR reaction plates (Applied Biosystems: Cat #4346906) at 50 μL/well. Next, 50 μL or 25 k cells/well from the 2× cell suspension was added to the pre-loaded PCR plates. All plates were prepared as duplicates, covered with adhesive plate sealers (Perkin Elmer: Cat #6050185) and left to incubate at 37° C. for 60 minutes. During incubation, sufficient NanoGlo luciferase assay reagents (Promega: Cat #N1120) were left to equilibrate to room temperature in the dark. Immediately before heating the plates, the NanoGlo substrate was mixed with the NanoGlo buffer at a 1:50 ratio. The thermal cycler (Veriti 96-Well Thermal Cycler, Thermo Fisher Scientific) was allowed to reach the designated temperature prior to placement of the PCR plate into the heating block. For Tm determination experiments, duplicate plates containing a fixed concentration of test compound (10 μM final) as well as vehicle control were prepared to perform a 12-point temperature gradient spanning 37-70° C. for 3 minutes. Therefore, two thermal cycler protocols were set up covering two 6-step temperature gradients ranging from 37-52° C. and 52-70° C. Plates were then allowed to cool at room temperature for 5 minutes after the heat treatment followed by transfer of 75 μL of the reaction into a 96-well white polystyrene microplate (Corning: Cat #CLS3903) and addition of 75 μL of the prepared NanoGlo mixture. Microplates were then left to shake in the dark for 5 minutes before total luminescence was measured on a SpectraMax IX3 plate reader. The luminescence value obtained at each temperature was normalized to the luminescence obtained at 37° C. and the ratio obtained was plotted against the temperature. A Boltzman Sigmoidal non-linear regression was applied to the resulting data to determine Tm values and the difference between the Tm value for a given OGG1 inhibitor relative to the DMSO vehicle control was the delta Tm.

[3] = molecular target: T1, hOGG1; assay: Biochemical fluorescence assay to measure enzymatic activity of hOGG1 (OGG1/APEX IC50); set-up: Protein His-hOGG1 (12-323) was prepared; His (N); host or cells: E. coli; conditions: 1 nM OGG1+2 nM APEX+6 nM dsDNA (8-oxo-dG substrate); pH 7.5; RT 40 min; read-out: OGG1/APEX IC50
Method in brief: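 His-hOGG1 (12-323, E. coli) at 1 nM with 2 nM hAPE1/APEX1, preincubated 20 min RT with compound. Then 6 nM 8-oxo-dG dsDNA substrate added, 40 min at RT in Tris pH 7.5, 100 mM KCl. TAMRA fluorescence (Ex520/Em600) converted to % inhibition vs controls; IC50 from 3-parameter fit of 10-point curve.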

T1 sequence (O15527 12-323): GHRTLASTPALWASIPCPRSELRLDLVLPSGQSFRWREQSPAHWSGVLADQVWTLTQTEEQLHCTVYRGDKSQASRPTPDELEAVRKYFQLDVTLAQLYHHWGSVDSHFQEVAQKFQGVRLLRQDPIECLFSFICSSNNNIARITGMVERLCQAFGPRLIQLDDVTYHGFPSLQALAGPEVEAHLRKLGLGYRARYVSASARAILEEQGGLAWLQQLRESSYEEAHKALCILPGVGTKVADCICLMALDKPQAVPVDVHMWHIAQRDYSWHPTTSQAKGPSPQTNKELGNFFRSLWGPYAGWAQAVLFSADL

Row | SMILES | Kd [1] | ΔTm at 10 µM [2] | IC50 [3]
1 | COc1ccc(NC(=O)[C@]2(C)CC[C@@H](N3Cc4c(C)ccc(OC)c4NC3=O)CC2)cc1Cl (single isomer, unassigned) [Example 6, (1r,4r)-N-(3-Chloro-4-methoxyphenyl)-4-(8-methoxy-5-methyl-2-oxo-1,2-dihydroquinazolin-3(4H)-yl)-1-methylcyclohexanecarboxamide] | > 1 µM | ≤ 6 °C | –
2 | COc1ccc(NC(=O)[C@]2(C)CC[C@@H](N3Cc4c(C)ccc(OC)c4NC3=O)CC2)cc1C#N (single isomer, unassigned) [Example 8, (1r,4r)-N-(3-cyano-4-methoxyphenyl)-4-(8-methoxy-5-methyl-2-oxo-1,2-dihydroquinazolin-3(4H)-yl)-1-methylcyclohexanecarboxamide] | > 1 µM | ≤ 6 °C | –
3 | Cc1cc(NCCN(C)C)cc2c1CN([C@H]1CC[C@@H](C(=O)Nc3cc4ccccc4[nH]3)CC1)C2=O [Example 132, (1s,4s)-4-(6-((2-(Dimethylamino)ethyl)amino)-4-methyl-1-oxoisoindolin-2-yl)-N-(1H-indol-2-yl)cyclohexane-1-carboxamide] | – | > 10 °C | –
4 | Cc1cc(NCCN(C)C)cc2c1CN([C@H]1CC[C@@H](C(=O)Nc3cc4ccccc4[nH]3)CC1)C2=O [Example 271, (1s,4s)-4-(6-(2-(dimethylamino)ethylamino)-4-methyl-1-oxoisoindolin-2-yl)-N-(1H-indol-2-yl)cyclohexanecarboxamide] | 0.01 to 0.1 µM | – | < 0.1 µM

Other lines, results leading:

Row | Kd [1] | ΔTm at 10 µM [2] | IC50 [3] | SMILES
5 | > 1 µM | ≤ 6 °C | – | COc1cc(NC(=O)[C@]2(C)CC[C@@H](N3Cc4c(C)ccc(OC)c4NC3=O)CC2)ccc1C [Example 12, (1r,4r)-N-(3-Methoxy-4-methylphenyl)-4-(8-methoxy-5-methyl-2-oxo-1,2-dihydroquinazolin-3(4H)-yl)-1-methylcyclohexanecarboxamide]
6 | > 1 µM | ≤ 6 °C | – | COc1ccc(NC(=O)[C@]2(C)CC[C@@H](N3Cc4c(C)ccc(OC)c4NC3=O)CC2)cc1C (single isomer, unassigned) [Example 10, (1r,4r)-N-(3-methyl-4-methoxyphenyl)-4-(8-methoxy-5-methyl-2-oxo-1,2-dihydroquinazolin-3(4H)-yl)-1-methylcyclohexanecarboxamide]
